# Measured values: patent US20220257698A1, “ANGIOTENSIN TYPE 2 (AT2) RECEPTOR AGONISTS FOR USE IN THE TREATMENT OF CANCER” (LANTHIOPEP B.V., priority 2019, published 2022)
# Tested on: OvCa13329 ovarian cancer PDX model
# Assay: KcAng(1-7) on growth of ovarian carcinoma PDX OvCa13329 in mice
# Format: in vivo, NMRI nu/nu mice (human PDX)
# Settings: for optT/C: day 11 of the treatment
# Experimental: In vivo studies were conducted at EPO GmbH Berlin. Large studies (FIG. 1A, 2, 3, 4, 5) comprised 3 groups of 10 mice/group and 5 animals as reserve, as outlined in Table 1. Smaller studies (FIG. 1B, 1C, 1D) comprised 2 groups of mice of 3 mice per group. The animals were allocated to the various treatment groups (e.g. 0.2 μg/kg and 30 μg/kg) with a maximum of 10 animals per group. […] The groups received subcutaneous (s.c.) drug injection (for max. 28 days) as outlined in the Table 1.
# NMRI nu/nu mice were used in this study. The animals were female at age of 6 to 8 weeks. The respective PDX tumors were inoculated subcutaneously (s.c.), and the tumors were grown to achieve palpable tumor sizes before start of the respective treatments. The PDX included breast (MaCa4151), colon (Co9689A), head & neck (HN10309), lung (Lu7433) and ovarian (OvCa13329) cancer (Table 2).
# Treatment with KcAng(1-7) was started with palpable tumors after the randomization of animals regarding tumor volume. KcAng(1-7) was applied s.c. by daily injections at […] or 30 μg/kg dose for a maximum of 28 days (or earlier as defined by the humane end point for the study).
# KcAng(1-7) was prepared as follows: The compounds was suspended in sterile PBS resulting in a clear solution. The remains of this formulation were stored at 4° C.
# Tumor growth stimulatory or inhibitory activity of the KcAng(1-7) was evaluated by determination of tumor volumes (TV). During the study, tumor volumes and body weight were measured twice a week, and the ratio of the mean tumor volumes between the compound-treated group and the vehicle-treated group (T/C) was calculated.
# Tumor volume=(tumor width)×(tumor width)×(tumor length)+2
# T/C=T÷C • T: Mean estimated tumor volume of the compound-treated group • C: Mean estimated tumor volume of the vehicle-treated group
# [1] = Gr. B 0.2 μg/kg/d s.c., Day 7 (Meas. 1)
# [2] = Gr. B 0.2 μg/kg/d s.c., Day 11 (Meas. 2)
# [3] = Gr. B 0.2 μg/kg/d s.c., Day 14 (Meas. 3)
# [4] = Gr. B 0.2 μg/kg/d s.c., Day 18 (Meas. 4)
# [5] = Gr. B 0.2 μg/kg/d s.c., Day 21 (Meas. 5)
# [6] = Gr. C 30 μg/kg/d s.c., Day 7 (Meas. 1)
# [7] = Gr. C 30 μg/kg/d s.c., Day 11 (Meas. 2)
# [8] = Gr. C 30 μg/kg/d s.c., Day 14 (Meas. 3)
# [9] = Gr. C 30 μg/kg/d s.c., Day 18 (Meas. 4)
# [10] = Gr. C 30 μg/kg/d s.c., Day 21 (Meas. 5)
substance,measurement,setting,value
Lys-Asp-Arg-Val-Abu/Ala-Ile-His-Abu/Ala (KDRVAIHA; not fully specified; cyclic thioether (Abu/Ala bridge); VARIANT (5)..(5) /replace=“Abu”; VARIANT (8)..(8) /replace=“Abu”; SITE (1)..(8) /note=“Variant residues given in the sequence have no preference with respect to those in the annotations for variant positions”) [KcAng(1-7)],optT/C,0.2 μg/kg,55.8%
same,optT/C,30 μg/kg,51%
same,effect on tumor volume,"0.2 and 30 μg/kg, 15 days",significant reduction in tumor volume
same,RTV Mean,[1],1
same,RTV Median,[1],1
same,T/C,[1],102.4%
same,Tumor Vol. Mean,[1],0.122 cm^3
same,Tumor Vol. Median,[1],0.123 cm^3
same,RTV Mean,[2],1.6
same,RTV Median,[2],1.5
same,T/C,[2],55.8%
same,Tumor Vol. Mean,[2],0.192 cm^3
same,Tumor Vol. Median,[2],0.181 cm^3
same,RTV Mean,[3],3.1
same,RTV Median,[3],3
same,T/C,[3],68.5%
same,Tumor Vol. Mean,[3],0.384 cm^3
same,Tumor Vol. Median,[3],0.337 cm^3
same,RTV Mean,[4],8.5
same,RTV Median,[4],8
same,T/C,[4],73.9%
same,Tumor Vol. Mean,[4],0.985 cm^3
same,Tumor Vol. Median,[4],1.015 cm^3
same,RTV Mean,[5],13.4
same,RTV Median,[5],11.9
same,T/C,[5],79.3%
same,Tumor Vol. Mean,[5],1.547 cm^3
same,Tumor Vol. Median,[5],1.398 cm^3
same,RTV Mean,[6],1
same,RTV Median,[6],1
same,T/C,[6],97%
same,Tumor Vol. Mean,[6],0.116 cm^3
same,Tumor Vol. Median,[6],0.115 cm^3
same,RTV Mean,[7],1.6
same,RTV Median,[7],1.6
same,T/C,[7],51.1%
same,Tumor Vol. Mean,[7],0.176 cm^3
same,Tumor Vol. Median,[7],0.182 cm^3
same,RTV Mean,[8],2.6
same,RTV Median,[8],2.7
same,T/C,[8],54.9%
same,Tumor Vol. Mean,[8],0.308 cm^3
same,Tumor Vol. Median,[8],0.33 cm^3
same,RTV Mean,[9],8.4
same,RTV Median,[9],8.4
same,T/C,[9],72.2%
same,Tumor Vol. Mean,[9],0.962 cm^3
same,Tumor Vol. Median,[9],0.995 cm^3
same,RTV Mean,[10],12.6
same,RTV Median,[10],13
same,T/C,[10],73.9%
same,Tumor Vol. Mean,[10],1.442 cm^3
same,Tumor Vol. Median,[10],1.503 cm^3
